Data as given in paper PMC10122656, “Siglec-6 mediates the uptake of extracellular vesicles through a noncanonical glycolipid binding pocket” (Nature Communications, 2023).
“And” between values parts separate entries of the source, which are not always exact repeats. Equal entries are not always repeated.

Legend:
[1] = system: untransfected (UT) CHO cells; experiment: Cell assay (liposome/EV binding, flow cytometry); format: cell-based, Chinese Hamster; conditions: UT; 3 mol% ganglioside liposomes; replicates
Protocol: (§1) Stock lipids (DSPC, Cholesterol, PEG45–DSPE) solutions were prepared by solvating the lipids in chloroform. An appropriate volume of each lipid solution was transferred to a glass test tube to reach the desired mol% of the component. The chloroform was then removed under N2 gas to yield a lipid thin film. Once dry, 100 µL of DMSO was added to the lipid-containing test tube and then the functional lipids (ganglioside, AF647–PEG45–DSPE, Siglec ligand–PEG45–DSPE, pHrodo–PEG45–DSPE, NGL) was added from their respect DMSO stock solution. The lipid mixture was then stored at −80 °C until completely frozen at which point excess DMSO was removed via lyophilization. Dry lipids were then stored at −80 °C until they were extruded. Lipid suppliers can be found in Supplementary Table 4.
(§2) Dry lipids were then hydrated in 1 mL of PBS. The lipids were then sonicated in a bath sonicator in a cycle of 1 min on, 5 min off for a total of five cycles. Liposomes were then extruded using an Avanti mini extruder first using an 800 nm filter and then a 100 nm filter yielding liposomes that were 130 ± 35 nm (Supplementary Table 5) measured using a Malvern Panalytical Zetasizer Nano S. Liposomes were stored at 4 °C.
(§3) 200,000 cells/well were plated into a 96-well U-bottom microplate and centrifuged at 300 × g for 5 min. The cells were then resuspended in 50 µL of 50 µM liposome/50 µg/mL (protein concentration) of EV solution in DMEM F12 5% FBS and incubated at 37 °C for 30 min. Excess liposomes were then removed via centrifuged at 300 × g for 5 min followed by washing the cells with FACS solution. The cells were then resuspended in (1:250 V/V) anti-Siglec-flow buffer (1% V/V FBS, 500 µM, EDTA Hank’s Balanced Salt Solution pH 7.4), solution and left to rest on ice for 30 min. The cells were then centrifuged again at 300 × g for 5 min and the cells were resuspended in FACS buffer solution and were then ready for analysis by flow cytometry. Information regarding antibody clone, catalog number supplier, label isotype, and dilution can be found in Supplementary Table 6. The Siglec-positive cells were gated on for liposome-binding analysis (Supplementary Fig. 1b).
(§4) Flow cytometry measurements were collected on a 5-laser Fortessa X-20 (BD Bioscience). All the resulting data were analyzed using FlowJo (10.5.3) software (BD Biosciences).

WT Siglec-1 CHO cells = molecular target: T1, WT Siglec-1 CHO cells (Homo sapiens, UniProt Q9BZZ2); experiment: Cell assay (liposome/EV binding, flow cytometry); format: cell-based; design: GM1 liposome binding to Siglec-1 CHO cells, flow cytometry (Fig. 1b) / Binding of liposomes with increasing ganglioside content against Siglec-1 CHO cells (Fig. 1c) / Liposome binding to Siglec-1-expressing CHO cells in the cell assay (Fig. 1f): unit not given here; conditions: for log10(MFI AF647) of GLL relative to log10(MFI AF647) of the same GLL against UT CHO cells (Fig. 2a): Sig-1 WT, 3 mol% ganglioside liposomes; for log10(MFI AF647) of GLL relative to log10(MFI AF647) of the same GLL against UT CHO cells (Fig. 2a) / Binding of liposomes with increasing ganglioside content against Siglec-1 CHO cells (Fig. 1c) / Liposome binding to Siglec-1-expressing CHO cells in the cell assay (Fig. 1f): replicates; for GM1 liposome binding to Siglec-1 CHO cells, flow cytometry (Fig. 1b): 3 mol% GM1 liposomes, technical replicates
T1 construct: expressed in transfected cells
T1 sequence (Q9BZZ2 20-1709): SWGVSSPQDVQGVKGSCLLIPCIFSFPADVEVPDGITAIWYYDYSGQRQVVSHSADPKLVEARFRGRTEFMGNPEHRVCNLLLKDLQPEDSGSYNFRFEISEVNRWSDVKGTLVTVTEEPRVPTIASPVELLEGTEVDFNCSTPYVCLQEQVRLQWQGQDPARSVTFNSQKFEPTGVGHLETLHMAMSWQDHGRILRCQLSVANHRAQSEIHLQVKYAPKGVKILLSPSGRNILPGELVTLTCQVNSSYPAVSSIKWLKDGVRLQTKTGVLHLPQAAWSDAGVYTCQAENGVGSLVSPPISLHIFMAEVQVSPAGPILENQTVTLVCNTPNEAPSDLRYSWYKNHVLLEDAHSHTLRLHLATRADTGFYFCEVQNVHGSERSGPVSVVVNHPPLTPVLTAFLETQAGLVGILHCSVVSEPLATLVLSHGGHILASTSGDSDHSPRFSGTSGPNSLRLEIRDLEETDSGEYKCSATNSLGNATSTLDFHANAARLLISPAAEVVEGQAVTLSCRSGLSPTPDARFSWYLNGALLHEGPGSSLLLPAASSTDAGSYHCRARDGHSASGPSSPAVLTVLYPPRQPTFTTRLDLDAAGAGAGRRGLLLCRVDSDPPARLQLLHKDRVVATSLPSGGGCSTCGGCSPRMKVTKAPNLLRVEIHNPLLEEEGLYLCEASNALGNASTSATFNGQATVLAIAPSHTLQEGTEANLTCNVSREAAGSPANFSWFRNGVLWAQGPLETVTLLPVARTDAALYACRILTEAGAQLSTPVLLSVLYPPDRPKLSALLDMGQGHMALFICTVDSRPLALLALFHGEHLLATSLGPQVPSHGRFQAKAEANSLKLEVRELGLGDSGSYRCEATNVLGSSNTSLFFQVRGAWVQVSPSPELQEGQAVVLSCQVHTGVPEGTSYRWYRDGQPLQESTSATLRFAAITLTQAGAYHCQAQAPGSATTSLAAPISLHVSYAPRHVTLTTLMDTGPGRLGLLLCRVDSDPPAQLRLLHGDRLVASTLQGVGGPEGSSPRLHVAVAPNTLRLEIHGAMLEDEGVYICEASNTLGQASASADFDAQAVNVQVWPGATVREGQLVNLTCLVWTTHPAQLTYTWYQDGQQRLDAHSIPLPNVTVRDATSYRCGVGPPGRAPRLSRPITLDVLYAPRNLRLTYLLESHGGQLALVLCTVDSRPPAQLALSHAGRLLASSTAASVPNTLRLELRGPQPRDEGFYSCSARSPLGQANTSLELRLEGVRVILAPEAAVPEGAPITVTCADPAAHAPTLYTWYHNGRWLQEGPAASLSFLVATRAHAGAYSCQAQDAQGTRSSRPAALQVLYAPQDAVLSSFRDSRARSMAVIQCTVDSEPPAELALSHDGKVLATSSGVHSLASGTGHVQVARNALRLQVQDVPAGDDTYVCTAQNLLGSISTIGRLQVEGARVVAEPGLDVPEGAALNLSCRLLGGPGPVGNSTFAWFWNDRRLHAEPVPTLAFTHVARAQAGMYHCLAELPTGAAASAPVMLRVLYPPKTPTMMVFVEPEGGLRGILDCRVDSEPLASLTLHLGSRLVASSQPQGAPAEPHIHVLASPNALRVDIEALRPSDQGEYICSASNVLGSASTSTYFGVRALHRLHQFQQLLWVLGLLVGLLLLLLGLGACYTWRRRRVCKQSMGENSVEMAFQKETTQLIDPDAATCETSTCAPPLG
Protocol: as §1, §2, §3, §4

Siglec-8 WT CHO cells = molecular target: T2, Siglec-8 WT CHO cells (Homo sapiens, UniProt Q9NYZ4); experiment: Cell assay (liposome/EV binding, flow cytometry); format: cell-based; conditions: Sig-8 WT; 3 mol% ganglioside liposomes; replicates
T2 construct: expressed in transfected cells
T2 sequence (Q9NYZ4 17-499): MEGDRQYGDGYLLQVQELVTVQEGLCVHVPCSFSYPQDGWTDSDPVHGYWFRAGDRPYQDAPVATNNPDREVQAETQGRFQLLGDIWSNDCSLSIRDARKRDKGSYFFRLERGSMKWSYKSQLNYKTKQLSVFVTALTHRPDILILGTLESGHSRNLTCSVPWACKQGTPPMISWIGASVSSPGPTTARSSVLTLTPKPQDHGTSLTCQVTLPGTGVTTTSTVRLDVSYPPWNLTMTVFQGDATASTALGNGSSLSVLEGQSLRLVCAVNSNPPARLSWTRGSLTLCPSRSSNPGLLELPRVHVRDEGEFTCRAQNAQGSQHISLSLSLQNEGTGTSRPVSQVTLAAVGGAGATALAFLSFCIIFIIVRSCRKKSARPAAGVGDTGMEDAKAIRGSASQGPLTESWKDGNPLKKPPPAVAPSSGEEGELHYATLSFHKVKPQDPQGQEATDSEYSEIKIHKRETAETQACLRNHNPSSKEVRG
Protocol: as §1, §2, §3, §4

R122A Siglec-6-Fc = molecular target: T3, R122A Siglec-6-Fc (Homo sapiens, UniProt O43699, R122A); experiment: Ganglioside ELISA; format: binding; conditions: Figure 2c, replicates
T3 construct: the Siglecs as Fc chimeras; made in house; host or cells: WT CHO cells
T3 sequence (O43699 27-347 R122A limits assumed): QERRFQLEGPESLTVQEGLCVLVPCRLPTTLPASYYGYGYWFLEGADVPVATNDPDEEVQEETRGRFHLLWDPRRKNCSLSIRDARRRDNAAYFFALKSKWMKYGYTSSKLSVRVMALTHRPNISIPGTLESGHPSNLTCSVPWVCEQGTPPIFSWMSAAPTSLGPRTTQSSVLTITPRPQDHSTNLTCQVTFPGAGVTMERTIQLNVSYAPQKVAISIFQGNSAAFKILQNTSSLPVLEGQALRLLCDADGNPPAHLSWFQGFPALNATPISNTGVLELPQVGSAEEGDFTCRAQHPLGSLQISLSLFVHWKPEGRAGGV
Protocol: (§5) Siglec-Fc constructs designed by Rodrigues et al.[30] were used in this work. Siglec-Fc constructs were expressed using WT CHO cells in cell culture media as described above with 1% HEPES. Cells incubated as described above for one-week post confluency. The supernatant was harvested and stored at 4 °C.
(§6) The purification was heavily inspired by Rodrigues et al.[30]. The purification of the Siglec-Fcs from supernatant began with Ni^2+ affinity chromatography using an AKTA FPLC equipped with a HisTrap Excel column (GE). The column was equilibrated with fifteen column volumes (CVs) of equilibrium buffer (500 mM NaCl, 20 mM NaPO4H2, pH 7.4). The Siglec-Fc containing supernatant was then loaded in its entirety onto the column. The column was then washed with fifteen CVs of wash buffer (500 mM NaCl, 30 mM imidazole, 20 mM NaPO4H2, pH 7.4). The Siglec-Fc was then eluted in 20 in 1 mL fractions with twenty CVs of elution buffer (500 mM NaCl, 500 mM imidazole, 20 mM NaPO4H2, pH 7.4). Fractions containing Siglec-Fc were compiled and then prepared for the next stage of purification by diluting the fractions 1:4 with buffer W (100 mM Tris–HCl, 150 mM NaCl, 1 mM EDTA, pH 8.0). A Strep-Tactin column (IBA life sciences) was washed with fifteen CVs of buffer W. The Siglec-Fc-buffer W solution was then loaded in its entirety onto the column. The bound Siglec-Fc was then washed with fifteen CVs of buffer W. Siglec-Fc was eluted from the column with 15 column volumes of buffer E (100 mM Tris–HCl, 150 mM NaCl, 1 mM EDTA, 10 mM d-Desthiobiotin, pH 8.0). Fractions containing Siglec-Fc were pooled and dialyzed against PBS to remove any d-Desthiobiotin. After dialysis, Siglec-Fcs were concentrated using an ultra-centrifugal device (30 kDa MWCO) and aliquoted into 5 µg aliquots, and frozen. The Siglec-Fcs were then lyophilized overnight, and the lyophilized Siglec-Fcs were stored at −20 °C.
(§7) Our ELISA approach was carried out similarly to previous work by Rapoport[12] and Yamakawa[44]. Ganglioside ethanol solutions (10 µM) were prepared and then transferred in 50 µL increments to a 96-well microplate. The ethanol was removed by drying the plates overnight at room temperature. The plates were then washed with PBS, dried, and then blocked with 5% (m/V) BSA PBS for 1 h. The plates were then washed with PBS and then 2 µg/mL Siglec-Fc precomplexed to Strep-Tactin (2 Siglec-Fc:1 Strep-Tactin monomer) horse radish peroxidase was added to the microplate. The complex was incubated with the plate at room temperature for 2 h. The unbound complexes were then removed by washing in PBS and the plate was developed with Sera care TMB solution. The amount of binding was then quantified by using the background (microplate well with no ligand) subtracted absorbance at 450 nm using a Molecular Devices SpectraMAX ® iD5.

Siglec-1-Fc WT = Siglec-1-Fc WT (Homo sapiens, UniProt Q9BZZ2); experiment: Ganglioside ELISA; format: binding; conditions: Figure 2c, replicates
Sequence of Siglec-1-Fc WT (Q9BZZ2 20-136 limits assumed): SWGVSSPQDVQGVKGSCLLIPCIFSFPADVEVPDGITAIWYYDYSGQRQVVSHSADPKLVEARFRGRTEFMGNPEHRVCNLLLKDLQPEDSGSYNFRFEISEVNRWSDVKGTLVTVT
Protocol: as §5, §6, §7

Siglec-6-Fc WT = molecular target: T4, Siglec-6-Fc WT (Homo sapiens, UniProt O43699); experiment: Ganglioside ELISA; format: binding; conditions: for ganglioside ELISA signal, Siglec-6 WT: Figure 2c, replicates; for ELISA recognition of adsorbed ganglioside by Siglec-6 (in words): ganglioside adsorbed to microplate, outside a bilayer
T4 construct: the Siglecs as Fc chimeras; made in house; host or cells: WT CHO cells
T4 sequence (O43699 27-347 limits assumed): as the sequence (O43699 27-347 R122A limits assumed) above, with A96R counted along it
Protocol: as §5, §6, §7

Siglec-7-Fc R124A = molecular target: T5, Siglec-7-Fc R124A (Homo sapiens, UniProt Q9Y286, R124A); experiment: Ganglioside ELISA; format: binding; conditions: Figure 2c, replicates
T5 construct: the Siglecs as Fc chimeras; made in house; host or cells: WT CHO cells
T5 sequence (Q9Y286 19-353 R124A limits assumed): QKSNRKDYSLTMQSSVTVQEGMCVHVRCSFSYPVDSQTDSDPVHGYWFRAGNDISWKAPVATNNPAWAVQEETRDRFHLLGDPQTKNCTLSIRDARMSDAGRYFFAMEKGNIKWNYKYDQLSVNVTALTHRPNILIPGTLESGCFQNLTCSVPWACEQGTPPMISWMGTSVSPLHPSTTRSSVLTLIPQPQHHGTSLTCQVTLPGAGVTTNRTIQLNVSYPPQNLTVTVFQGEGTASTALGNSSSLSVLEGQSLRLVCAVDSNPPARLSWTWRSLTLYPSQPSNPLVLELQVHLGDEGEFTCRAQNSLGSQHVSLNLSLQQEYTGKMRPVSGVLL
Protocol: as §5, §6, §7

Siglec-7-Fc WT = molecular target: T6, Siglec-7-Fc WT (Homo sapiens, UniProt Q9Y286); experiment: Ganglioside ELISA; format: binding; conditions: Figure 2c, replicates
T6 construct: the Siglecs as Fc chimeras; made in house; host or cells: WT CHO cells
T6 sequence (Q9Y286 19-353 limits assumed): as the sequence (Q9Y286 19-353 R124A limits assumed) above, with A106R counted along it
Protocol: as §5, §6, §7

Substance | log10(MFI AF647) of GLL relative to log10(MFI AF647) of the same GLL against UT CHO cells (Fig. 2a) [1] | log10(MFI AF647) of GLL relative to log10(MFI AF647) of the same GLL against UT CHO cells (Fig. 2a) (WT Siglec-1 CHO cells) | log10(MFI AF647) of GLL relative to log10(MFI AF647) of the same GLL against UT CHO cells (Fig. 2a) (Siglec-8 WT CHO cells) | ganglioside ELISA signal, Siglec-6 R (R122A Siglec-6-Fc) | ganglioside ELISA signal, Siglec-1 WT (Siglec-1-Fc WT) | ganglioside ELISA signal, Siglec-6 WT (Siglec-6-Fc WT) | ganglioside ELISA signal, Siglec-7 R (Siglec-7-Fc R124A) | ganglioside ELISA signal, Siglec-7 WT (Siglec-7-Fc WT) | ELISA recognition of adsorbed ganglioside by Siglec-6 (in words) (Siglec-6-Fc WT) | further results
GD1b | 0.01 (2×) and -0.01 (2×) | 0.7 and 0.71 (2×) and 0.63 | -0.17 (2×) and -0.15 (2×) | 0.07 and 0.09 and 0.06 and 0.08 | 0.52 and 0.66 and 0.64 and 0.62 | -0.04 and 0.01 | 0 and -0.01 and -0.02 | 0.41 and 0.39 and 0.38 | – | –
GD3 | 0.01 (2×) and -0.01 (2×) | 0.41 (3×) and 0.45 | -0.11 and -0.06 and -0.09 and -0.01 | 0.22 and 0.2 | 0.76 and 0.85 and 0.8 and 0.82 | 0.04 and 0.09 and 0.03 | 0.01 and -0.01 and -0.02 | 0.74 and 0.73 and 0.7 and 0.66 | did not recognize | –
GM1 | 0.07 and -0.03 (2×) and -0.01 | 0.34 and 0.29 and 0.27 and 0.31 | -0.02 (3×) and 0.04 | 0.02 and 0.03 | 0.39 and 0.55 and 0.5 and 0.54 | -0.03 and -0.04 and -0.05 and -0.02 | 0 and -0.01 and 0.03 | 0.04 and 0.05 and 0.01 and 0.03 | did not recognize | Binding of liposomes with increasing ganglioside content against Siglec-1 CHO cells (Fig. 1c) (WT Siglec-1 CHO cells; 0.0187 Ligand/nm2): 0.02; Binding of liposomes with increasing ganglioside content against Siglec-1 CHO cells (Fig. 1c) (WT Siglec-1 CHO cells; 0.0373 Ligand/nm2): 0.13 (2×) and 0.12 (2×); Binding of liposomes with increasing ganglioside content against Siglec-1 CHO cells (Fig. 1c) (WT Siglec-1 CHO cells; 0.056 Ligand/nm2): 0.26 and 0.28 and 0.27 (2×); Binding of liposomes with increasing ganglioside content against Siglec-1 CHO cells (Fig. 1c) (WT Siglec-1 CHO cells; 0.0933 Ligand/nm2): 0.26 and 0.25 and 0.27 and 0.28; Binding of liposomes with increasing ganglioside content against Siglec-1 CHO cells (Fig. 1c) (WT Siglec-1 CHO cells; 0.187 Ligand/nm2): 0.19 and 0.18 (2×) and 0.16; Binding of liposomes with increasing ganglioside content against Siglec-1 CHO cells (Fig. 1c) (WT Siglec-1 CHO cells; 0.373 Ligand/nm2): 0.08 (3×) and 0.07; Liposome binding to Siglec-1-expressing CHO cells in the cell assay (Fig. 1f) (WT Siglec-1 CHO cells; 3% glycolipid in liposome): 926 and 882 and 896; GM1 liposome binding to Siglec-1 CHO cells, flow cytometry (Fig. 1b) (WT Siglec-1 CHO cells; 0.2 mol% PEG45–DSPE): 1640 and 1691 and 1719 and 1798; GM1 liposome binding to Siglec-1 CHO cells, flow cytometry (Fig. 1b) (WT Siglec-1 CHO cells; 0.5 mol% PEG45–DSPE): 1529 and 1675 and 1687 and 1576 and 1551; GM1 liposome binding to Siglec-1 CHO cells, flow cytometry (Fig. 1b) (WT Siglec-1 CHO cells; 1 mol% PEG45–DSPE): 687 and 675 and 684 and 712 and 741; GM1 liposome binding to Siglec-1 CHO cells, flow cytometry (Fig. 1b) (WT Siglec-1 CHO cells; 2 mol% PEG45–DSPE): 106 and 105 and 107 and 111 and 113; GM1 liposome binding to Siglec-1 CHO cells, flow cytometry (Fig. 1b) (WT Siglec-1 CHO cells; 5 mol% PEG45–DSPE): 79 and 80 and 82 and 81; Liposome binding to Siglec-1-expressing CHO cells in the cell assay (Fig. 1f) (WT Siglec-1 CHO cells; 20% glycolipid in liposome): 316 and 299 and 296; binding to WT Siglec-1 CHO cells (in words) (WT Siglec-1 CHO cells; cell assay): No differences in binding; ganglioside content threshold above which GLL binding to Siglec-1 CHO cells decreased (WT Siglec-1 CHO cells; ganglioside titrated in GLLs): 1–3 mol%
